Our source for the activation values is publication PMC10175918 (Communications Biology, 2023).

Where two headings read alike, the source gives them in different places.

Common to all, as to test: TGFα-shedding assay-based GPCR screening with chimeric Gα subunit proteins
Holding throughout (type): cell-based
Holding throughout (conditions): 10µM, Favipiravir 100μM

Assay [1] deals with T1, 348 GPCRs (Homo sapiens, UniProt O14626).
T1 construct: expressed in transfected cells; host or cells: HEK293A
T1 sequence (O14626 1-319): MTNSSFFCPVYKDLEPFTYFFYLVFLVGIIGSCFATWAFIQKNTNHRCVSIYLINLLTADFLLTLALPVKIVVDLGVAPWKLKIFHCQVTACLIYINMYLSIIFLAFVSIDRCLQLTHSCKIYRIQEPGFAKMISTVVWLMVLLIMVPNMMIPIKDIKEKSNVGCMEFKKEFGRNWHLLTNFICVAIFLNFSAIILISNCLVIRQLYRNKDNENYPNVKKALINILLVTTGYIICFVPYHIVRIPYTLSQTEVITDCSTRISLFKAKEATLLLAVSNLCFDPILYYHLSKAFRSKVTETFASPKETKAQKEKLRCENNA

Assay [2] has as its target T2, 348 GPCRs (Homo sapiens, UniProt P13945).
T2 construct: expressed in transfected cells; host or cells: HEK293A

Assay [3] concerns the target 348 GPCRs (Homo sapiens, UniProt P14416).
Assay [4] has as its target T3, 348 GPCRs (Homo sapiens, UniProt P30550).
T3 construct: expressed in transfected cells; host or cells: HEK293A

In assay [5] the target is T4, 348 GPCRs (Homo sapiens, UniProt P49685).
T4 sequence (P49685 1-360): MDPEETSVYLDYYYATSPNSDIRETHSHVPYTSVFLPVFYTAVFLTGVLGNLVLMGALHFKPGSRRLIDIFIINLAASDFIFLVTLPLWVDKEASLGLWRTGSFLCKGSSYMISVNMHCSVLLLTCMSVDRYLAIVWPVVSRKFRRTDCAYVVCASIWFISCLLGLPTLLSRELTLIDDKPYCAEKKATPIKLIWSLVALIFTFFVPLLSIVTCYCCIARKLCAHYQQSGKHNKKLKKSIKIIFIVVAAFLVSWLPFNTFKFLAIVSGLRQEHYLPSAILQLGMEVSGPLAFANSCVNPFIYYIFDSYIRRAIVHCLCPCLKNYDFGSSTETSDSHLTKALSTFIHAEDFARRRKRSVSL

Assay [6] concerns the target T5, 348 GPCRs (Homo sapiens, UniProt P50391).
T5 construct: expressed in transfected cells; host or cells: HEK293A

Assay [7] concerns the target T6, 348 GPCRs (Homo sapiens, UniProt Q02643).
T6 construct: expressed in transfected cells; host or cells: HEK293A
T6 sequence (Q02643 23-423): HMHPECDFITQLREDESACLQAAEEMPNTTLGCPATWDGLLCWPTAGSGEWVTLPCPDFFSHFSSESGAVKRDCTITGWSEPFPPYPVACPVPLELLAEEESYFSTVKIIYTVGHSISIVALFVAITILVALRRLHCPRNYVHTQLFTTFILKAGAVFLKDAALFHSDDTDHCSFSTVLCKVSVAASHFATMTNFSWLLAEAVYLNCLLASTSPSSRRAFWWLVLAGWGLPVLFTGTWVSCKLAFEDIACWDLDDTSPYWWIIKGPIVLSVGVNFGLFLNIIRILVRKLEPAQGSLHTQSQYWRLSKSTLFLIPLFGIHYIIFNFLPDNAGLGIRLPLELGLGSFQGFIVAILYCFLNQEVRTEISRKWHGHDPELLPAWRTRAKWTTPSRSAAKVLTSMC

The target in assay [8] is T7, 348 GPCRs (Homo sapiens, UniProt Q13255).
T7 construct: expressed in transfected cells; host or cells: HEK293A

The target in assay [9] is T8, 348 GPCRs (Homo sapiens, UniProt Q7Z602).
T8 construct: expressed in transfected cells; host or cells: HEK293A

The target of assay [10] is T9, 348 GPCRs (Homo sapiens, UniProt Q8NFJ5).
T9 construct: expressed in transfected cells; host or cells: HEK293A

The target in assay [11] is T10, 348 GPCRs (Homo sapiens, UniProt Q969F8).
T10 construct: expressed in transfected cells; host or cells: HEK293A

For assay [12], the target named is T11, 348 GPCRs (Homo sapiens, UniProt Q96LB2).
T11 construct: expressed in transfected cells; host or cells: HEK293A

Assay [13] deals with 348 GPCRs (Homo sapiens, UniProt Q99500).
Setting [14] is: GPR171 (G Protein-Coupled Receptor 171), read-out: % GPCR activation compared to TPA.
Where [15] appears, read: ADRB3 (adrenoceptor beta 3), read-out: % GPCR activation compared to TPA.
[16] abbreviates: D2 (dopamine receptor D2), read-out: % GPCR activation compared to TPA.
[17] abbreviates: GRPR (gastrin-releasing peptide receptor), read-out: % GPCR activation compared to TPA.
The mark [18] stands for this setting: GPR15 (G protein-coupled receptor 15), read-out: % GPCR activation compared to TPA.
Setting [19] is: NPY4R (neuropeptide Y receptor Y4), read-out: % GPCR activation compared to TPA.
Where [20] appears, read: GHRHR (growth hormone releasing hormone receptor), read-out: % GPCR activation compared to TPA.
The mark [21] stands for this setting: GRM1 (glutamate receptor, metabotropic 1), read-out: % GPCR activation compared to TPA.
Setting [22] is: GPR141 (G Protein-Coupled Receptor 141), read-out: % GPCR activation compared to TPA.
[23] abbreviates: GPRC5A (G protein-coupled receptor class C group 5 member A), read-out: % GPCR activation compared to TPA.
Setting [24] is: KISSPEPTIN-R (KISS1 Receptor), read-out: % GPCR activation compared to TPA.
Setting [25] is: MRGPRX1 (MAS-related GPR, member X1), read-out: % GPCR activation compared to TPA.
The mark [26] stands for this setting: S1PR3 (sphingosine-1-phosphate receptor 3), read-out: % GPCR activation compared to TPA.
The mark [27] stands for this setting: read-out: % GPCR activation compared to TPA, GPR171 (G Protein-Coupled Receptor 171).
Setting [28] is: read-out: % GPCR activation compared to TPA, ADRB3 (adrenoceptor beta 3).
Setting [29] is: read-out: % GPCR activation compared to TPA, D2 (dopamine receptor D2).
Where [30] appears, read: read-out: % GPCR activation compared to TPA, GRPR (gastrin-releasing peptide receptor).
Setting [31] is: read-out: % GPCR activation compared to TPA, GPR15 (G protein-coupled receptor 15).
Setting [32] is: read-out: % GPCR activation compared to TPA, NPY4R (neuropeptide Y receptor Y4).
Where [33] appears, read: read-out: % GPCR activation compared to TPA, GHRHR (growth hormone releasing hormone receptor).
Setting [34] is: read-out: % GPCR activation compared to TPA, GRM1 (glutamate receptor, metabotropic 1).
The mark [35] stands for this setting: read-out: % GPCR activation compared to TPA, GPR141 (G Protein-Coupled Receptor 141).
Where [36] appears, read: read-out: % GPCR activation compared to TPA, GPRC5A (G protein-coupled receptor class C group 5 member A).
Where [37] appears, read: read-out: % GPCR activation compared to TPA, KISSPEPTIN-R (KISS1 Receptor).
Setting [38] is: read-out: % GPCR activation compared to TPA, MRGPRX1 (MAS-related GPR, member X1).
[39] abbreviates: read-out: % GPCR activation compared to TPA, S1PR3 (sphingosine-1-phosphate receptor 3).

T9 sequence (Q8NFJ5 whole entry): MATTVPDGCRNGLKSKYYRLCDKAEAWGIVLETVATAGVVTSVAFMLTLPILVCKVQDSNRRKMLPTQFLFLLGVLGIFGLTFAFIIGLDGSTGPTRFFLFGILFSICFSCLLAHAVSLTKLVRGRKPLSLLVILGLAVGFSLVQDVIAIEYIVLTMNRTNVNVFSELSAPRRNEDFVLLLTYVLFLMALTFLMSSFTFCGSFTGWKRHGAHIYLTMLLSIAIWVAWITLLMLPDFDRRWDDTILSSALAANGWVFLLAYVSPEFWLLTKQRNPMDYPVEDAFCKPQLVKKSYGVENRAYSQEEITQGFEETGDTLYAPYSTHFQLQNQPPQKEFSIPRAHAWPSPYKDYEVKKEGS
T3 sequence (P30550 whole entry): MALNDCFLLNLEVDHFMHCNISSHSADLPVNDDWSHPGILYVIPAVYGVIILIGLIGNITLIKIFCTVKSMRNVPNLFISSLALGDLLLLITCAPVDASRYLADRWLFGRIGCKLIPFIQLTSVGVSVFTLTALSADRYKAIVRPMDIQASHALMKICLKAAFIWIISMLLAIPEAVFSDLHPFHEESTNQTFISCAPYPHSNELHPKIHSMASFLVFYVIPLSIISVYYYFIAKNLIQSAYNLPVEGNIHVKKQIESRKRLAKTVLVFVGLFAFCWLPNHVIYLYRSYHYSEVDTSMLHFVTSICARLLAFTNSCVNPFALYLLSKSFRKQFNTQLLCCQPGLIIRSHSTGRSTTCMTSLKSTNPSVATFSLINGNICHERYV
T11 sequence (Q96LB2 whole entry): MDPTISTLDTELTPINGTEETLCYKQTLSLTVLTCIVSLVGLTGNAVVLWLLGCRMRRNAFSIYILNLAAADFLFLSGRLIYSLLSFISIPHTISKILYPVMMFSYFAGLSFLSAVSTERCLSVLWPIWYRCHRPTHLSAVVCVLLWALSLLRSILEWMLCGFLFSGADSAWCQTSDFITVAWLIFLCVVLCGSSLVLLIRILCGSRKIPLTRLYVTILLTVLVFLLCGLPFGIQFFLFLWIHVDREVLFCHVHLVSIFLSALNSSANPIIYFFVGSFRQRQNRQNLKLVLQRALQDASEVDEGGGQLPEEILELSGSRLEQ
T10 sequence (Q969F8 whole entry): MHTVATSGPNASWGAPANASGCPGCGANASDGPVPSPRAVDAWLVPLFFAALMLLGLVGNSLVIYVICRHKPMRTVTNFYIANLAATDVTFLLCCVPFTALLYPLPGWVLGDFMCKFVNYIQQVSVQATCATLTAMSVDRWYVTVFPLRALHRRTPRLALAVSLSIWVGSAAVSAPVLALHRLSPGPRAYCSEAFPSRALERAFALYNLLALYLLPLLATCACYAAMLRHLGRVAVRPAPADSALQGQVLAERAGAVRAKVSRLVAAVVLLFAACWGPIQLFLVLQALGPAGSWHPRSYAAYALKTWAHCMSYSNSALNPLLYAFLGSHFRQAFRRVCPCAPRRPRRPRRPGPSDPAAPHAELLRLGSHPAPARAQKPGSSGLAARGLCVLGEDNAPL
T5 sequence (P50391 whole entry): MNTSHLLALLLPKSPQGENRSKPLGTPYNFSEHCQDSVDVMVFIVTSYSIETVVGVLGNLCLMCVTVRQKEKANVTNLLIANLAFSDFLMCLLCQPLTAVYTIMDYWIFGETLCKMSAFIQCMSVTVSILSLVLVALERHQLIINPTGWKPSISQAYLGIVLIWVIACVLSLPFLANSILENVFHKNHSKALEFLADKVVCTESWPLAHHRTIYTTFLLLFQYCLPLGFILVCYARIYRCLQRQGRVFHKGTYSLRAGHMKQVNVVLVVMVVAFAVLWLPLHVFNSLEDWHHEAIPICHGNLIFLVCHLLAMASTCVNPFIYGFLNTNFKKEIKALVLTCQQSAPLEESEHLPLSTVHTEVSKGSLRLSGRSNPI
Chain of 348 GPCRs (Homo sapiens, UniProt Q99500) (Q99500 whole entry): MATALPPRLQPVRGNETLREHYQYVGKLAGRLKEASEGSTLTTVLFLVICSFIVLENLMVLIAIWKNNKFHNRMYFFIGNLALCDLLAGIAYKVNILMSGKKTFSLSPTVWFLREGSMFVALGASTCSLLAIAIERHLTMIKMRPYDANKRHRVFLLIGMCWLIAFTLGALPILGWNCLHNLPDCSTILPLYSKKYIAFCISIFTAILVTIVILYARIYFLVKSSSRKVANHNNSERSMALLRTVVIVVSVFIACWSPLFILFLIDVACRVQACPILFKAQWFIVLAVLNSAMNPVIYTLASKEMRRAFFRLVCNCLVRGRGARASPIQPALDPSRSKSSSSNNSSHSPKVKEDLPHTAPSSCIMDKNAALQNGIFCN
Chain of 348 GPCRs (Homo sapiens, UniProt P14416) (P14416 whole entry): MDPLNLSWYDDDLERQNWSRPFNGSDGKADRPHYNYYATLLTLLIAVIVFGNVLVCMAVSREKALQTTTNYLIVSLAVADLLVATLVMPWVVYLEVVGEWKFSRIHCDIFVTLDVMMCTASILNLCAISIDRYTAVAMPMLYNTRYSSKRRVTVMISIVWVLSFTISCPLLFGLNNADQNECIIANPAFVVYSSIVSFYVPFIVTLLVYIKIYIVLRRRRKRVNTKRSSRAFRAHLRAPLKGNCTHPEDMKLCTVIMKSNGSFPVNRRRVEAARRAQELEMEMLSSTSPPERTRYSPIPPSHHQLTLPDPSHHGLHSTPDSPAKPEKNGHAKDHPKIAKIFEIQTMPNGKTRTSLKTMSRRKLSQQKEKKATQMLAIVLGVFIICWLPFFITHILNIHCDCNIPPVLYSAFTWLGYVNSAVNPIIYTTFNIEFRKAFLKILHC
T7 sequence (Q13255 19-1194): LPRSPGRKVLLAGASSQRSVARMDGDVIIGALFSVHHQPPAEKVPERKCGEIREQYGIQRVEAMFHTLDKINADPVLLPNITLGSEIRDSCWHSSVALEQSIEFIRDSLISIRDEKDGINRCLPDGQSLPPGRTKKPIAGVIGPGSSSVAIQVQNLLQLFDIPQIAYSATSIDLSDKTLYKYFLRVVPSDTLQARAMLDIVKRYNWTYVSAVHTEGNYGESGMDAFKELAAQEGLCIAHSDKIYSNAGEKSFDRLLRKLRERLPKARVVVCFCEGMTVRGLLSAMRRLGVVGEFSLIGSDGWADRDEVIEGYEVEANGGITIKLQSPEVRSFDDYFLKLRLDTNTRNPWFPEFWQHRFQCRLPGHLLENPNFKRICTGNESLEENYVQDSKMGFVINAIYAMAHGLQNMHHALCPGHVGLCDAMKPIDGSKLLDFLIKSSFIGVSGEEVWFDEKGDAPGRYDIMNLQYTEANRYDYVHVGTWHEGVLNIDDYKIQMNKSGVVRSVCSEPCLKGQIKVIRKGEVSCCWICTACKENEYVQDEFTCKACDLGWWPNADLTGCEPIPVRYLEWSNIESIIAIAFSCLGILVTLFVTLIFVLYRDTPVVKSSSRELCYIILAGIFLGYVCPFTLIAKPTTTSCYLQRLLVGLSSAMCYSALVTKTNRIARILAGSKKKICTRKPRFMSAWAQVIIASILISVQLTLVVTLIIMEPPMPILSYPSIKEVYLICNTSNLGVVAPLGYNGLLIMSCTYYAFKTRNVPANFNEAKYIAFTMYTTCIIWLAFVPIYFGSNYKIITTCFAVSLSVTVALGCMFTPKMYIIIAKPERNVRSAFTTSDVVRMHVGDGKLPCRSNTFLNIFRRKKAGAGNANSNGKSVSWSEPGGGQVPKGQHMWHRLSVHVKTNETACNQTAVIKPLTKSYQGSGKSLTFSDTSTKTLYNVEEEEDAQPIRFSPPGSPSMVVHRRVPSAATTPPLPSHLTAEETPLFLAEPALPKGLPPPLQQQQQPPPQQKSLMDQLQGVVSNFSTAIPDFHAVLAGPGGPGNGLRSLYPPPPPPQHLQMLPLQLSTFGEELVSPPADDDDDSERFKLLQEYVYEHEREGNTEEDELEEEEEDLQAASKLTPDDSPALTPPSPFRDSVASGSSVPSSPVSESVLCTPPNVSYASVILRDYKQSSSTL
T8 sequence (Q7Z602 whole entry): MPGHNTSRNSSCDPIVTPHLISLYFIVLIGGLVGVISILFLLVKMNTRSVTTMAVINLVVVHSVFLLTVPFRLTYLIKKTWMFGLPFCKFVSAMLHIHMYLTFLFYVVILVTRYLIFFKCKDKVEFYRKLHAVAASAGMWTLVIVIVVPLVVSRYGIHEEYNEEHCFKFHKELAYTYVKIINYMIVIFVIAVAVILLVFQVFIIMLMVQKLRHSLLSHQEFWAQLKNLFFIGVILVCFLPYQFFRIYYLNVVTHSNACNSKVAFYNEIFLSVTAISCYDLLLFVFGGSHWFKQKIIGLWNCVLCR
T2 sequence (P13945 whole entry): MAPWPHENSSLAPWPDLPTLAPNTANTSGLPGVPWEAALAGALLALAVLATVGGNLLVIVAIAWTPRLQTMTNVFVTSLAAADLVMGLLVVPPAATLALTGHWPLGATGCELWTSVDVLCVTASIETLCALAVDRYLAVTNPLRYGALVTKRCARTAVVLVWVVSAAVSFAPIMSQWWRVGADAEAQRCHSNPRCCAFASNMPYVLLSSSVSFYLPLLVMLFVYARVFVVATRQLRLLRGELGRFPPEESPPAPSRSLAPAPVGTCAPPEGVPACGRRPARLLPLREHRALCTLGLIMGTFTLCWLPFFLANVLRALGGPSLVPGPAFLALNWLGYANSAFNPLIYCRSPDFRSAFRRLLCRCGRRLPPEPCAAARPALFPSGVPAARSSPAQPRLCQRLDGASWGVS

Turning to `NC(=O)c1nc(F)cnc1O` [favipiravir, 6-fluoro-3-hydroxy-2-pyrazinecarboxamide], the activation at 10 µM on 348 GPCRs [1] (setting [14]) was -0.909%; at 348 GPCRs [2] (setting [15]), -0.975%; on 348 GPCRs [4] (setting [17]), -1.14%; on 348 GPCRs [8] (setting [21]), -0.946%; at 348 GPCRs [13] (setting [26]) it was -2%. Further, the activation at 100 µM at 348 GPCRs [3] (setting [16]) is 4.37%; on 348 GPCRs [5] (setting [18]), 1.23%; on 348 GPCRs [6] (setting [19]), -2.23%; at 348 GPCRs [7] (setting [20]), 6.96%; on 348 GPCRs [9] (setting [22]), -0.646%; on 348 GPCRs [10] (setting [23]) it was 8.99%. The activation at 100 µM at 348 GPCRs [11] (setting [24]) is -3.52%; at 348 GPCRs [12] (setting [25]) it was -1.16%.

As for `CC(C)OC(=O)[C@H](C)N[P@](=O)(OC[C@H]1O[C@@H](n2ccc(=O)[nH]c2=O)[C@](C)(F)[C@@H]1O)Oc1ccccc1` [sofosbuvir], the activation at 10 µM on 348 GPCRs [1] (setting [27]) was -0.832%; on 348 GPCRs [2] (setting [28]), -0.333%; at 348 GPCRs [4] (setting [30]) it was -1.24%; on 348 GPCRs [8] (setting [34]), 0.735%; at 348 GPCRs [13] (setting [39]), -0.452%. The activation at 100 µM at 348 GPCRs [3] (setting [29]) was -0.334%; at 348 GPCRs [5] (setting [31]) it was -12.9%; at 348 GPCRs [6] (setting [32]) it was -0.849%; at 348 GPCRs [7] (setting [33]) it was -2.19%; on 348 GPCRs [9] (setting [35]) it was -0.925%; at 348 GPCRs [10] (setting [36]), -9.13%. Further, the activation at 100 µM was -1.38% at 348 GPCRs [11] (setting [37]) and -1.41% on 348 GPCRs [12] (setting [38]).

Regarding `CCC(CC)COC(=O)[C@H](C)N[P@](=O)(OC[C@H]1O[C@@](C#N)(c2ccc3c(N)ncnn23)[C@H](O)[C@@H]1O)Oc1ccccc1` [remdesivir], the activation at 10 µM at 348 GPCRs [1] (setting [27]) was 2.61%; at 348 GPCRs [2] (setting [28]), -0.789%; on 348 GPCRs [4] (setting [30]), -2.02%; on 348 GPCRs [8] (setting [34]) it was -0.568%; on 348 GPCRs [13] (setting [39]), -2.57%. The activation at 100 µM at 348 GPCRs [3] (setting [29]) was 6.53%; on 348 GPCRs [5] (setting [31]) it was -0.0536%; on 348 GPCRs [6] (setting [32]), -1.2%; on 348 GPCRs [7] (setting [33]), 5.92%; at 348 GPCRs [9] (setting [35]), -1.45%; at 348 GPCRs [10] (setting [36]), 9.99%. The activation at 100 µM on 348 GPCRs [11] (setting [37]) was -1.75%; at 348 GPCRs [12] (setting [38]), 0.23%.

Regarding `N#C[C@@]1(c2ccc3c(N)ncnn23)O[C@H](CO)[C@@H](O)[C@H]1O` [GS441524], the activation at 10 µM on 348 GPCRs [1] (setting [14]) was -1.42%; on 348 GPCRs [2] (setting [15]), 0.201%; on 348 GPCRs [4] (setting [17]), -1.56%; on 348 GPCRs [8] (setting [21]), -0.549%; at 348 GPCRs [13] (setting [26]) it was -2.2%. In addition, the activation at 100 µM on 348 GPCRs [3] (setting [16]) was 4.14%; at 348 GPCRs [5] (setting [18]) it was -0.752%; on 348 GPCRs [6] (setting [19]), -1.48%; on 348 GPCRs [7] (setting [20]) it was 1.38%; on 348 GPCRs [9] (setting [22]), -0.309%; on 348 GPCRs [10] (setting [23]) it was 6.76%. For the same molecule, the values for the activation at 100 µM on 348 GPCRs [11] (setting [24]) and at 348 GPCRs [12] (setting [25]) were -2.31% and -1.59%, respectively.

Turning to `CC(C)C(=O)OC[C@H]1O[C@@H](n2ccc(NO)nc2=O)[C@H](O)[C@@H]1O` [molnupiravir], the activation at 10 µM on 348 GPCRs [1] (setting [14]) is -2.4%; at 348 GPCRs [2] (setting [15]) it was -0.737%; at 348 GPCRs [4] (setting [17]), -3.58%; on 348 GPCRs [8] (setting [21]), -0.761%; on 348 GPCRs [13] (setting [26]), -2.52%. Besides, the activation at 100 µM on 348 GPCRs [3] (setting [16]) is -0.0472%; at 348 GPCRs [5] (setting [18]) it was -0.0279%; on 348 GPCRs [6] (setting [19]), -1.31%; at 348 GPCRs [7] (setting [20]), -0.966%; at 348 GPCRs [9] (setting [22]), -1.57%; on 348 GPCRs [10] (setting [23]), -5.54%. The activation at 100 µM at 348 GPCRs [11] (setting [24]) is -4.04%; on 348 GPCRs [12] (setting [25]), -2.42%.
